Test results as given in patent US20040019118A1, “NMDA receptor antagonists and their use in inhibiting abnormal hyperphosphorylation of microtubule associated protein tau” (priority 2002, published 2004).
Entries after “also recorded” stand apart in the source; their conditions may differ. Read-outs that look alike come from different tables or passages of the source.

What was measured:
[1] = tested on: MAP2; test: Immunohistochemical staining of MAP2 in cultured hippocampal slices; assay type: cell-based, rat; details: 100 nM OA 24 h, then 10 μM Memantine 24 h
Experimental: Organotypic cultures of rat hippocampal slices were prepared from 20-30 day old Wistar rats and cultured with the interface method as described previously (Stoppini, et al. 1991; Bahr, et al. 1995; Zhongrin, et al. 2000). The rats were anesthetized with ketamine (100 mg/kg body weight) and decapitated and the hippocampi were dissected out and sliced into 400 um coronal sections by a McIllwain tissue chopper. Select slices with uninterrupted bright transparent neuronal layers were plated, 1-3 slices/filter, onto Millicell CM filters (Millipore, Bedford, Mass.). For the first 2 days in vitro (DIV) cultures were maintained in 25% horse serum, 50% Basal Media-Eagle (BEM), 25% Eagle's Balanced Salt Solution (EBSS), 25 mM HEPES, 1 mM glutamine, 28 mM glucose, pH 7.2, at 32° C. in a 5% CO2 humidified atmosphere. The slice cultures were then switched to 25% horse serum, 50% BEM and EBSS modified so that the potassium concentration was 2.66 mM, for another 5 DIV. […]
After different treatments some of the hippocampal slices were fixed in periodate/lysine/paraformaldehyde solution (Mclean, et al. 1974) at 33° C. for 5 h and then kept in 1% Triton-x-100 in PBS (pH 7.4) for 72 h at room temperature to improve the penetration of the antibodies. […] Peroxidase was detected using 0.05% diaminobenzidine (DAB) and H2O2 (0.01%) for 10 min.

[2] = tested on: tau; test: Tau phosphorylation by radioimmuno-dot-blots and 125I-Western blots of slice homogenates; assay type: cell-based, rat
Experimental: (§1) The rats were anesthetized with ketamine (100 mg/kg body weight) and decapitated and the hippocampi were dissected out and sliced into 400 um coronal sections by a McIllwain tissue chopper. Select slices with uninterrupted bright transparent neuronal layers were plated, 1-3 slices/filter, onto Millicell CM filters (Millipore, Bedford, Mass.). […] After 7 DIV, the cultures were maintained in physiological potassium containing 5% horse serum medium at 35° C. for at least 20 days before any treatment was applied. When the slices were treated, the reagents were applied into the culture medium. At different time points, the slices collected with a brush were washed twice in homogenizing buffer (50 mM HEPES, pH 7.0, 10 mM β-merceptoethanol [BME], 1 mM EDTA, 1 mM EGTA, 0.1 mM phenylmethyl sulfonyl fluoride [PMSF], 2.0 mM benzamidine and 2.0 μg/ml each of aprotinin, leupeptin and pepstatin) and homogenized at 4° C. using a Teflon-glass homogenizer. The homogenate was then divided into two parts, one was centrifuged at 16000×g for 15 min and the supernatant was used to assay activities of PP-2A and PP-1. The rest of the homogenate was diluted 1:1 with a phosphatase inhibitor cocktail (20 mM β-glycerophosphate, 2 mM Na3VO4 and 100 mM NaF, pH 7.0) and either used for Western blots or centrifuged at 16000×g for 15 min and the resulting supernatant used to determine the kinase activities.
Triplicate samples of each homogenate were applied to nitrocellulose membrane (Schleicher and Schuell, Keene, N.H.) and dried at 37° C.

[3] = tested on: CaMKII; test: CaMKII activity in extracts of treated hippocampal slice cultures; assay type: cell-based, rat
Experimental: Organotypic cultures of rat hippocampal slices were prepared from 20-30 day old Wistar rats and cultured with the interface method as described previously (Stoppini, et al. 1991; Bahr, et al. 1995; Zhongrin, et al. 2000). The rats were anesthetized with ketamine (100 mg/kg body weight) and decapitated and the hippocampi were dissected out and sliced into 400 um coronal sections by a McIllwain tissue chopper. Select slices with uninterrupted bright transparent neuronal layers were plated, 1-3 slices/filter, onto Millicell CM filters (Millipore, Bedford, Mass.). For the first 2 days in vitro (DIV) cultures were maintained in 25% horse serum, 50% Basal Media-Eagle (BEM), 25% Eagle's Balanced Salt Solution (EBSS), 25 mM HEPES, 1 mM glutamine, 28 mM glucose, pH 7.2, at 32° C. in a 5% CO2 humidified atmosphere. The slice cultures were then switched to 25% horse serum, 50% BEM and EBSS modified so that the potassium concentration was 2.66 mM, for another 5 DIV. After 7 DIV, the cultures were maintained in physiological potassium containing 5% horse serum medium at 35° C. for at least 20 days before any treatment was applied. When the slices were treated, the reagents were applied into the culture medium. At different time points, the slices collected with a brush were washed twice in homogenizing buffer (50 mM HEPES, pH 7.0, 10 mM β-merceptoethanol [BME], 1 mM EDTA, 1 mM EGTA, 0.1 mM phenylmethyl sulfonyl fluoride [PMSF], 2.0 mM benzamidine and 2.0 μg/ml each of aprotinin, leupeptin and pepstatin) and homogenized at 4° C. using a Teflon-glass homogenizer. The homogenate was then divided into two parts, one was centrifuged at 16000×g for 15 min and the supernatant was used to assay activities of PP-2A and PP-1. The rest of the homogenate was diluted 1:1 with a phosphatase inhibitor cocktail (20 mM β-glycerophosphate, 2 mM Na3VO4 and 100 mM NaF, pH 7.0) and either used for Western blots or centrifuged at 16000×g for 15 min and the resulting supernatant used to determine the kinase activities.
CaMKII activity was measured in 25 μl of buffer containing 50 mM HEPES, pH 7.5, 10 mM MgCl2, 2.0 mM CaCl2, 10 mM BME, 10 μg/ml calmodulin (CaM), 20 μM syntide (Sigma, St Louis Mo., USA), 0.06 mg/ml slice extract and 200 μM [γ^32P]ATP. The reaction was initiated by adding [γ32p] ATP. After incubation for 10 min at 30° C., 10 μl reaction mixture was removed and spotted on to phosphocellulose membrane. The membrane was then washed five times in 1% phosphoric acid to remove non-protein incorporated ^32P, dried and counted by Cerenkov radiation. The activity of PKA was determined as above except the reaction mixture contained 70 mM NaHPO4, pH 6.8, 14 mM MgCl2, 1.4 mM EDTA, 30 μM malantide (Sigma, St Louis, Mo., USA), 200 μM [γ^32p] ATP and 0.06 mg/ml slice extract.

[4] = tested on: PP-1; details: 10 nM OA, 24 h; cited from earlier work
[5] = tested on: PP-1; details: up to 5 μM OA, 3 h; cited from earlier work
[6] = target: T1, PP-2A (Rattus norvegicus, UniProt P63331); details: up to 5 μM OA, 3 h; cited from earlier work
T1 construct: the supernatant was used to assay activities of PP-2A and PP-1; from tissue; host or cells: organotypic culture of adult rat hippocampal slices; 16,000xg extract

[7] = tested on: PP-1; test: PP-1 activity in extracts of treated hippocampal slice cultures; assay type: cell-based, rat; details: OA up to 1 μM, up to 48 h
Experimental: as §1

[8] = 100 nM OA 24 h, then 10 μM Memantine 24 h

T1 sequence (P63331 whole entry): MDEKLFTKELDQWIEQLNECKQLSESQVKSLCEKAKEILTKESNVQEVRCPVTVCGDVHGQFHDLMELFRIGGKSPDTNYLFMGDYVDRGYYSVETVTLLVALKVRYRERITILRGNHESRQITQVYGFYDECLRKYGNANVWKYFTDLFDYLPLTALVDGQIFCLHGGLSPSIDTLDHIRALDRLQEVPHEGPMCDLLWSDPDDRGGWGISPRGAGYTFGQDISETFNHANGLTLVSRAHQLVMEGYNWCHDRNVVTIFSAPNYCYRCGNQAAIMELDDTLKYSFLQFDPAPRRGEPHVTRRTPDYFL

CC12CC3CC(C)(C1)CC(N)(C3)C2 [Memantine, 1-amino-3,5-dimethyl adamantane]
MAP2 immunostaining [1]: beaded accumulation of MAP2 in dendrites was reduced and overall staining was increased; also recorded: a decrease in the degeneration and restoration of the staining of the neuropil; also recorded: partially reversed
restoration of OA-induced tau phosphorylation at Ser-214 [2, 8]: restored the tau phosphorylation at Ser-262 and Ser-214 to normal levels
restoration of OA-induced tau phosphorylation at Ser-262 [2, 8]: restored the tau phosphorylation at Ser-262 and Ser-214 to normal levels; also recorded: practically completely restored
restoration of phosphorylation of tau at Ser-262 ([2]; 5 μM compound, OA-treated): restoration
concentration of maximal effect on tau phosphorylation at Ser-262 ([2]; 2-10 μM tested, 24 h): 5 µM
lowest concentration inhibiting OA-induced tau phosphorylation at Ser-262 ([2]; 2-10 μM tested, radioimmuno-dot-blot): 2 µM
effect on OA-induced phosphorylation of tau at Ser-422 ([2]; Memantine in OA-treated cultures): no effect
effect on level of total tau ([2]; antibody 134d, radioimmuno-dot-blots): no detectable effect
restoration of OA-stimulated CaMKII activity ([3]; 100 nM OA and 1, 10 or 30 μM Memantine, 3-48 h (FIG. 2b), p<0.02): restored the OA-stimulated CaMKII activity to normal level
restoration of CaMKII activity ([3]; 100 nM OA plus 10 μM Memantine 24 h, or OA 24 h, wash, then Memantine 24 h): Restoration of CaMKII activity; also recorded: almost completely restored; also recorded: restored the activities of both PP-2A and CaMKII
restoration of OA-stimulated CaMKII activity ([3]; 100 nM OA, 10 μM Memantine, 24 h): restored the OA-induced changes in the activities of PP-2A, CaMKII and PKA to normal levels; also recorded: practically completely restored
additional effect on restoration of CaMKII activity ([3]; Memantine 10 to 30 μM, or 24 h to 48 h): Neither increase of Memantine from 10 μM to 30 μM nor duration of the treatment from 24 h to 48 h resulted in any significant additional effect
concentration giving full effect on restoration of CaMKII activity ([3]; OA-treated slices): 10 µM
lowest concentration at which restoration of CaMKII activity was observed ([3]; OA-treated slices): 1 µM
CaMKII activity after replacement of glutamate ([3]; after 0.3 mM glutamate, fresh medium with or without 10 μM Memantine or 15 μM MK801): restored the CaMKII activity to normal level
effect on CaMKII activity in control (untreated) slices ([3]; no OA): no significant effect

C=C1[C@@H](O)[C@@H]2O[C@]3(CC[C@H](/C=C/[C@@H](C)[C@@H]4CC(C)=C[C@@]5(O[C@H](C[C@@](C)(O)C(=O)O)CC[C@H]5O)O4)O3)CC[C@H]2O[C@@H]1[C@@H](O)C[C@H](C)[C@H]1O[C@@]2(CCCCO2)CC[C@H]1C [OA, Okadaic Acid]
inhibition of PP-1 [4]: ~65%
inhibition of PP-1 [5]: no detectable inhibition
maximal inhibition of PP-2A [6]: ~70%
phosphorylation of tau at Ser-214 ([2]; OA-treated cultures): modest increase
phosphorylation of tau at Ser-262 ([2]; OA-treated cultures): marked increase; also recorded: dramatic increase
phosphorylation of tau at Ser-422 ([2]; OA-treated cultures): marked increase; also recorded: dramatic increase
increase in CaMKII activity ([3]; 10 nM OA, 24 h): ~20%
CaMKII activity as % of control ([3]; 100 nM OA, 24 h): 180%
increase in CaMKII activity ([3]; 100 nM OA, 24 h): ~70%
increase in CaMKII activity ([3]; 1,000 nM OA, 24 h): ~140%
CaMKII activity as % of control ([3]; 1000 nM OA, 24 h): 240%
change in CaMKII activity ([3]; OA-treated slice cultures): marked increase
inhibition of PP-1 activity [7]: no significant changes; also recorded: no detectable inhibition
